Tests used:
[1] = system: antibodies in sera from SARS patients (sera 1a, 1b, 2, 6, 37, 62, London, SARS-yellow, SARS-green); format: binding, human; design: Binding of serum 6 to linear peptides of protein X1 of SARS-CoV Urbani / Binding of serum 37 to linear peptides of protein X1 of SARS-CoV Urbani / Binding of serum 6 to looped/cyclic peptide (PEPSCAN-ELISA) / Binding of serum 37 to looped/cyclic peptide (PEPSCAN-ELISA) / Binding of serum 37 to looped/cyclic peptides of protein X1 of SARS-CoV Urbani / Binding of serum 6 to linear peptides of protein X2 / Binding of serum 37 to linear peptides of protein X2 / Binding of serum 37 to looped/cyclic peptides of protein X2 of SARS-CoV Urbani / Binding of serum 6 to linear peptides of protein M of SARS-CoV Urbani / Binding of serum 37 to linear peptides of protein M of SARS-CoV Urbani / Binding of serum 6 to looped/cyclic peptides of protein M of SARS-CoV Urbani / Binding of serum 37 to looped/cyclic peptides of protein M of SARS-CoV Urbani / Binding of serum 6 to linear peptides of protein X3 of SARS-CoV Urbani / Binding of serum 37 to linear peptides of protein X3 of SARS-CoV Urbani / Binding of serum 37 to looped/cyclic peptides of protein X3 of SARS-CoV Urbani / Binding of serum 6 to linear peptides of protein X4 of SARS-CoV Urbani / Binding of serum 37 to linear peptides of protein X4 of SARS-CoV Urbani / Binding of serum 37 to looped/cyclic peptides of protein X4 of SARS-CoV Urbani / Binding of serum 6 to linear peptides of protein X5 of SARS-CoV Urbani / Binding of serum 37 to linear peptides of protein X5 of SARS-CoV Urbani / Binding of serum 37 to looped/cyclic peptides of protein X5 of SARS-CoV Urbani / Binding of serum 6 to linear peptides of protein N of SARS-CoV Urbani / Binding of serum 37 to linear peptides of protein N of SARS-CoV Urbani / Binding of serum 6 to linear peptide (PEPSCAN-ELISA) / Binding of serum 1a to looped/cyclic peptides of protein N of SARS-CoV Urbani / Binding of serum 1b to looped/cyclic peptides of protein N of SARS-CoV Urbani / Binding of serum 2 to looped/cyclic peptides of protein N of SARS-CoV Urbani / Binding of serum 6 to looped/cyclic peptides of protein N of SARS-CoV Urbani / Binding of serum 37 to looped/cyclic peptides of protein N of SARS-CoV Urbani / Binding of serum 62 to looped/cyclic peptides of protein N of SARS-CoV Urbani / Binding of serum London to looped/cyclic peptides of protein N of SARS-CoV Urbani / Binding of serum SARS-green to looped/cyclic peptides of protein N of SARS-CoV Urbani: unit not given here
[2] = system: recombinant human anti-SARS-CoV antibody 03-018; format: binding; design: Binding of antibody 03-018 to linear peptides of the N protein of SARS-CoV Urbani / Binding of antibody 03-018 to looped/cyclic peptides of the N protein of SARS-CoV Urbani: unit not given here
[3] = system: rabbit serum obtained by immunizing a rabbit with the SARS-CoV strain Frankfurt 1; format: binding; design: Binding of a rabbit serum to linear peptides / Binding of a rabbit serum to looped peptides / Rabbit serum linear peptides / Rabbit serum looped peptides / Binding of a rabbit serum to linear peptides of protein N of SARS-CoV Urbani (Rabbit serum linear peptides) / Binding of a rabbit serum to looped/cyclic peptides of protein N of SARS-CoV Urbani (Rabbit serum looped peptides): unit not given here
[4] = system: control sera (pooled serum of ten healthy LUMC hospital workers; commercial negative donor pooled serum from the Dutch bloodbank); format: binding, human; design: Binding of Control serum LUMC to linear peptides / Binding of Control serum Blood-bank to linear peptides / Binding of Control serum LUMC to looped peptides / Binding of Control Serum Blood-Bank to Looped peptides / Binding of Control serum LUMC to linear peptides of the protein M of SARS-CoV Urbani / Binding of Control serum Blood-bank to linear peptides of the protein M of SARS-CoV Urbani / Binding of Control serum LUMC to looped peptides of the protein M of SARS-CoV Urbani / Binding of Control Serum Blood-Bank to Looped peptides of the protein M of SARS-CoV Urbani: unit not given here

FAPSASAFFGMSRIG
Binding of serum 1a to linear peptides of protein N of SARS-CoV Urbani [1]: 0.2
Binding of serum 1a to looped/cyclic peptides of protein N of SARS-CoV Urbani [1]: 0.3
Binding of serum 1b to linear peptides of protein N of SARS-CoV Urbani [1]: 0.1
Binding of serum 1b to looped/cyclic peptides of protein N of SARS-CoV Urbani [1]: 0.1
Binding of serum 2 to linear peptides of protein N of SARS-CoV Urbani [1]: 0.2
Binding of serum 2 to looped/cyclic peptides of protein N of SARS-CoV Urbani [1]: 0.4
Binding of serum 6 to linear peptides of protein N of SARS-CoV Urbani [1]: 0.1
Binding of serum 6 to looped/cyclic peptides of protein N of SARS-CoV Urbani [1]: 0.3
Binding of serum 37 to linear peptides of protein N of SARS-CoV Urbani [1]: 0.6
Binding of serum 37 to looped/cyclic peptides of protein N of SARS-CoV Urbani [1]: 0.5
Binding of serum 62 to linear peptides of protein N of SARS-CoV Urbani [1]: 0.5
Binding of serum 62 to looped/cyclic peptides of protein N of SARS-CoV Urbani [1]: 0.4
Binding of serum London to linear peptides of protein N of SARS-CoV Urbani [1]: 0.4
Binding of serum London to looped/cyclic peptides of protein N of SARS-CoV Urbani [1]: 0.9
Binding of serum SARS-green to linear peptides of protein N of SARS-CoV Urbani [1]: 0.4
Binding of serum SARS-green to looped/cyclic peptides of protein N of SARS-CoV Urbani [1]: 0.0
Binding of serum SARS-yellow to linear peptides of protein N of SARS-CoV Urbani [1]: 0.5
Binding of serum SARS-yellow to looped/cyclic peptides of protein N of SARS-CoV Urbani [1]: 0.5
Binding of antibody 03-018 to linear peptides of the N protein of SARS-CoV Urbani [2]: 0.1
Binding of antibody 03-018 to looped/cyclic peptides of the N protein of SARS-CoV Urbani [2]: 0.2
Binding of a rabbit serum to linear peptides of protein N of SARS-CoV Urbani (Rabbit serum linear peptides) [3]: 0.0
Binding of a rabbit serum to looped/cyclic peptides of protein N of SARS-CoV Urbani (Rabbit serum looped peptides) [3]: 0.3
Control Serum Blood-Bank Looped peptides [4]: 0.4
Control serum Blood-bank linear peptides [4]: 0.5
Control serum LUMC linear peptides [4]: 0.6
Control serum LUMC looped peptides [4]: 0.4

GMSRIGMEVTPSGTW
Binding of serum 1a to linear peptides of protein N of SARS-CoV Urbani [1]: 0.3
Binding of serum 1a to looped/cyclic peptides of protein N of SARS-CoV Urbani [1]: 0.3
Binding of serum 1b to linear peptides of protein N of SARS-CoV Urbani [1]: 0.1
Binding of serum 1b to looped/cyclic peptides of protein N of SARS-CoV Urbani [1]: 0.2
Binding of serum 2 to linear peptides of protein N of SARS-CoV Urbani [1]: 0.2
Binding of serum 2 to looped/cyclic peptides of protein N of SARS-CoV Urbani [1]: 0.3
Binding of serum 6 to linear peptides of protein N of SARS-CoV Urbani [1]: 0.2
Binding of serum 6 to looped/cyclic peptides of protein N of SARS-CoV Urbani [1]: 0.2
Binding of serum 37 to linear peptides of protein N of SARS-CoV Urbani [1]: 0.7
Binding of serum 37 to looped/cyclic peptides of protein N of SARS-CoV Urbani [1]: 0.5
Binding of serum 62 to linear peptides of protein N of SARS-CoV Urbani [1]: 0.7
Binding of serum 62 to looped/cyclic peptides of protein N of SARS-CoV Urbani [1]: 0.5
Binding of serum London to linear peptides of protein N of SARS-CoV Urbani [1]: 0.5
Binding of serum London to looped/cyclic peptides of protein N of SARS-CoV Urbani [1]: 0.4
Binding of serum SARS-green to linear peptides of protein N of SARS-CoV Urbani [1]: 0.5
Binding of serum SARS-green to looped/cyclic peptides of protein N of SARS-CoV Urbani [1]: 0.3
Binding of serum SARS-yellow to linear peptides of protein N of SARS-CoV Urbani [1]: 0.7
Binding of serum SARS-yellow to looped/cyclic peptides of protein N of SARS-CoV Urbani [1]: 0.5
Binding of antibody 03-018 to linear peptides of the N protein of SARS-CoV Urbani [2]: 0.1
Binding of antibody 03-018 to looped/cyclic peptides of the N protein of SARS-CoV Urbani [2]: 0.2
Binding of a rabbit serum to linear peptides of protein N of SARS-CoV Urbani (Rabbit serum linear peptides) [3]: 0.1
Binding of a rabbit serum to looped/cyclic peptides of protein N of SARS-CoV Urbani (Rabbit serum looped peptides) [3]: 0.4
Control Serum Blood-Bank Looped peptides [4]: 0.6
Control serum Blood-bank linear peptides [4]: 0.6
Control serum LUMC linear peptides [4]: 0.6
Control serum LUMC looped peptides [4]: 0.5

QLESKVSGKGQQQQG
Binding of serum 1a to linear peptide (PEPSCAN-ELISA) [1]: 0.3
Binding of serum 1a to looped/cyclic peptides of protein N of SARS-CoV Urbani [1]: 0.5
Binding of serum 1b to linear peptide (PEPSCAN-ELISA) [1]: 0.1
Binding of serum 1b to looped/cyclic peptides of protein N of SARS-CoV Urbani [1]: 0.4
Binding of serum 2 to linear peptide (PEPSCAN-ELISA) [1]: 0.3
Binding of serum 2 to looped/cyclic peptides of protein N of SARS-CoV Urbani [1]: 0.7
Binding of serum 6 to linear peptide (PEPSCAN-ELISA) [1]: 0.2
Binding of serum 6 to looped/cyclic peptides of protein N of SARS-CoV Urbani [1]: 0.5
Binding of serum 37 to linear peptide (PEPSCAN-ELISA) [1]: 0.7
Binding of serum 37 to looped/cyclic peptides of protein N of SARS-CoV Urbani [1]: 0.6
Binding of serum 62 to linear peptide (PEPSCAN-ELISA) [1]: 0.8
Binding of serum 62 to looped/cyclic peptides of protein N of SARS-CoV Urbani [1]: 0.7
Binding of serum London to linear peptide (PEPSCAN-ELISA) [1]: 0.6
Binding of serum London to looped/cyclic peptides of protein N of SARS-CoV Urbani [1]: 0.7
Binding of serum SARS-green to linear peptide (PEPSCAN-ELISA) [1]: 0.5
Binding of serum SARS-green to looped/cyclic peptides of protein N of SARS-CoV Urbani [1]: 0.7
Binding of serum SARS-yellow to linear peptide (PEPSCAN-ELISA) [1]: 0.8
Binding of serum SARS-yellow to looped/cyclic peptides of protein N of SARS-CoV Urbani [1]: 1.1
Binding of antibody 03-018 to linear peptides of the N protein of SARS-CoV Urbani [2]: 0.1
Binding of antibody 03-018 to looped/cyclic peptides of the N protein of SARS-CoV Urbani [2]: 0.3
Binding of a rabbit serum to linear peptides of protein N of SARS-CoV Urbani (Rabbit serum linear peptides) [3]: 0.1
Binding of a rabbit serum to looped/cyclic peptides of protein N of SARS-CoV Urbani (Rabbit serum looped peptides) [3]: 0.4
Binding of Control Serum Blood-Bank to Looped peptides [4]: 1.0
Binding of Control serum Blood-bank to linear peptides [4]: 0.8
Binding of Control serum LUMC to linear peptides [4]: 0.8
Binding of Control serum LUMC to looped peptides [4]: 0.9

NSRNSTPGSSRGNSP
Binding of serum 1a to linear peptide (PEPSCAN-ELISA) [1]: 0.6
Binding of serum 1a to looped/cyclic peptides of protein N of SARS-CoV Urbani [1]: 0.6
Binding of serum 1b to linear peptide (PEPSCAN-ELISA) [1]: 0.4
Binding of serum 1b to looped/cyclic peptides of protein N of SARS-CoV Urbani [1]: 0.5
Binding of serum 2 to linear peptide (PEPSCAN-ELISA) [1]: 0.3
Binding of serum 2 to looped/cyclic peptides of protein N of SARS-CoV Urbani [1]: 0.5
Binding of serum 6 to linear peptide (PEPSCAN-ELISA) [1]: 0.4
Binding of serum 6 to looped/cyclic peptides of protein N of SARS-CoV Urbani [1]: 0.4
Binding of serum 37 to linear peptide (PEPSCAN-ELISA) [1]: 0.9
Binding of serum 37 to looped/cyclic peptides of protein N of SARS-CoV Urbani [1]: 0.6
Binding of serum 62 to linear peptide (PEPSCAN-ELISA) [1]: 0.9
Binding of serum 62 to looped/cyclic peptides of protein N of SARS-CoV Urbani [1]: 0.5
Binding of serum London to linear peptide (PEPSCAN-ELISA) [1]: 1.4
Binding of serum London to looped/cyclic peptides of protein N of SARS-CoV Urbani [1]: 0.4
Binding of serum SARS-green to linear peptide (PEPSCAN-ELISA) [1]: 0.4
Binding of serum SARS-green to looped/cyclic peptides of protein N of SARS-CoV Urbani [1]: 0.3
Binding of serum SARS-yellow to linear peptide (PEPSCAN-ELISA) [1]: 1.0
Binding of serum SARS-yellow to looped/cyclic peptides of protein N of SARS-CoV Urbani [1]: 0.3
Binding of antibody 03-018 to linear peptides of the N protein of SARS-CoV Urbani [2]: 0.1
Binding of antibody 03-018 to looped/cyclic peptides of the N protein of SARS-CoV Urbani [2]: 0.2
Binding of a rabbit serum to linear peptides of protein N of SARS-CoV Urbani (Rabbit serum linear peptides) [3]: 0.2
Binding of a rabbit serum to looped/cyclic peptides of protein N of SARS-CoV Urbani (Rabbit serum looped peptides) [3]: 0.5
Binding of Control Serum Blood-Bank to Looped peptides [4]: 0.7
Binding of Control serum Blood-bank to linear peptides [4]: 0.9
Binding of Control serum LUMC to linear peptides [4]: 0.7
Binding of Control serum LUMC to looped peptides [4]: 0.7

From patent publication US20070128217A1 (priority 2003, published 2007)
